# Assays:
# [1] = tested on: vector-transformed E. coli JA202; assay: Micro pH electrode-based transport assay, vector-transformed E. coli JA202; assay type: cell-based; conditions: 10 mM compound (pH 6.5) added to vector-transformed bacterial suspension pH 6.7
# Experimental: A measuring set up as previously reported[18] was used for micro pH electrode-based transport measurements. SfMCT was expressed in E. coli JA202 (MC4100 glcA::cat lldP::kan)[15] as described for uptake experiments. After expression, bacteria were pelleted (5,200 × g, 10 min, room temperature), washed twice in assay solution (250 mM KCl, 1 mM MgSO4, 2 mM CaCl2; 5,200 × g, 10 min, room temperature) and finally resuspended in assay solution to a bacterial density of OD600 15. Compounds that were assayed for proton-coupled transport were dissolved in assay solution and the pH was adjusted to 6.5. 800 µl of bacteria suspension were transferred into a 2 ml reaction tube (Eppendorf) and the pH value of the bacterial suspension (extracellular medium) was measured using a micro pH electrode with integrated temperature sensor (InLab Micro Pro, Mettler Toledo) under constant stirring. The pH of the bacterial suspension was adjusted to pH 6.7 using potassium hydroxide and hydrochloric acid. The SevenCompact pH-meter (Mettler Toledo), together with LabX direct pH 2.3 software (Mettler Toledo), were used for automatic recording in 15 s intervals. Measurements were initiated by adding 10 mM of the corresponding compound to the bacterial suspension. All experiments were performed at 24 °C.
# [2] = tested on: vector-transformed E. coli JA202; assay: Uptake of radioligands into vector-transformed bacteria; assay type: cell-based
# Experimental: The cultures were grown at 37 °C and 180 r.p.m. in an incubator shaker (Multitron, Infors HT). Protein expression was induced at OD600 ~0.5 by addition of IPTG to a final concentration of 0.25 mM. After 4 h, bacteria were pelleted (5,200 × g, 10 min, room temperature) and resuspended in uptake buffer (20 mM Bis-Tris propane-HCl (pH 6.7), 250 mM KCl) to a bacteria density of OD600 12. […] Furthermore, [3-3 H] propionic acid sodium salt ([^3H]propionate, American Radiolabeled Chemicals, specific activity 30 Ci/mmol), n-[2,3-3 H] butyric acid sodium salt ([^3H]butyrate, American Radiolabeled Chemicals, specific activity 120 Ci/mmol), and [1–14 C] pyruvic acid sodium salt ([^14C]pyruvate, specific activity 0.055 Ci/mmol American Radiolabeled Chemicals) were also used for transport experiments. […] Uptake experiments were performed in 2 ml reaction tubes (Eppendorf) at 30 °C under agitation (1,000 r.p.m., Thermomixer compact, Eppendorf). […] Bacteria were immediately pelleted by centrifugation (21,000 × g, 4 min, room temperature) and washed two times with 900 μl stop buffer. Finally, bacteria were lyzed in 50 μl 5% (w/v) sodium dodecylsulfate and transferred into a white 96-well plate (Optiplate, PerkinElmer). 150 µl of scintillation cocktail (MicroScint 40, PerkinElmer) were added before measuring each reaction for 2 min with a scintillation counter (TopCount NXT, PerkinElmer). For data analysis, the signal of the empty vector was subtracted from the transporter signal. […] Cpm values of each experiment were normalized with respect to the determined upper plateau value, i.e., the fitted upper plateau value corresponds to 100%. The arithmetic average of three independent experiments was calculated. Three independent and normalized pH-dependence curves were then averaged. For data analysis Prism6 (GraphPad Software) was used. The expression of SfMCT variants in E. coli JA202 (MC4100 glcA::cat lldP::kan)[15] was verified by Western blotting. Equal amounts of bacteria expressing SfMCT variants were loaded on 14% SDS/polyacrylamide gels. His-tagged transporters were detected using an anti-His5 (Qiagen, catalogue number 34660, primary antibody) at a dilution of 1:3,000 and a goat anti-mouse IgG (H + L) HRP conjugate antibody (Biorad, catalogue number 172-1011, secondary antibody) at a dilution of 1:2,500.
# MCT2 (SLC16A7) = conditions: MCT2, L-lactate; cited from earlier work
smiles,measurement,setting,value
C[C@H](O)C(=O)O [L-lactate],"proton-coupled transport, change of extracellular pH (in words)",[1],significantly slower and lower pH increase
same,Uptake of radioligand by vector (cpm),"[2]; 0.1 µCi radiolabeled monocarboxylate, vector-transformed bacteria",1768.33 cpm
same,Uptake of [14C]L-lactate by vector (cpm),[2]; Time 5 min,384.333 cpm
same,Uptake of [14C]L-lactate by vector (cpm),[2]; Time 10 min,605.333 cpm
same,Uptake of [14C]L-lactate by vector (cpm),[2]; Time 20 min,1203 cpm
same,Uptake of [14C]L-lactate by vector (cpm),[2]; Time 30 min,1731 cpm
same,Uptake of [14C]L-lactate by vector (cpm),[2]; Time 40 min,2474 cpm
same,Uptake of [14C]L-lactate by vector (cpm),[2]; Time 50 min,3128.67 cpm
same,Uptake of [14C]L-lactate by vector (cpm),[2]; Time 60 min,3938.67 cpm
same,Uptake of [14C]L-lactate by vector (cpm),[2]; Time 75 min,5158 cpm
same,Uptake of [14C]L-lactate by vector (cpm),[2]; Time 90 min,7311.67 cpm
same,Km,MCT2 (SLC16A7),~700 µM
